{"source": "patent US20120232069A1", "about": "“PROCESS FOR PREPARING EFAVIRENZ POLYMORPH” (HETERO RESEARCH FOUNDATION, priority 2008, published 2012)", "experiment": "Hygroscopicity: increase of water content on storage at 25° C. under relative humidity of 60%", "assay_type": "physicochemical", "conditions": "six months", "method": "Thus, for example, water content of crystalline form H1 produced according to the present invention is increased by 0.2% in six months at the temperature of 25° C. under relative humidity of 60%. Crystalline form H1 obtained according to the present invention typically has the water content of 2.5-8% by weight of the product obtained, more preferably 3-7% by weight, still more preferably 4-6% by weight as determined by Karl fisher method.", "data": [{"smiles": "O=C1Nc2ccc(Cl)cc2[C@@](C#CC2CC2)(C(F)(F)F)O1", "note": "[crystalline form H1 disclosed in WO 2006/018853] [(4S)-6-chloro-4-(cyclopropylethynyl)-1,4-dihydro-4-(trifluoromethyl)-2H-3,1-benzoxazin-2-one]", "values": [{"measurement": "increase of water content on storage", "value": 2.37, "unit": "%"}]}, {"smiles": "O=C1Nc2ccc(Cl)cc2[C@@](C#CC2CC2)(C(F)(F)F)O1", "note": "[crystalline form H1 produced according to the present invent] [(4S)-6-chloro-4-(cyclopropylethynyl)-1,4-dihydro-4-(trifluoromethyl)-2H-3,1-benzoxazin-2-one]", "values": [{"measurement": "increase of water content on storage", "value": 0.2, "unit": "%"}]}]}
